Source: patent US20240166687A1, “REGULATORY T CELL-INDUCING PEPTIDE AND COMPOSITION INCLUDING SAME FOR PREVENTING OR TREATING AUTOIMMUNE DISEASE” (IUCF-HYU (INDUSTRY-UNIVERSITY COOPERATION FOUNDATION …, priority 2021, published 2024)
Entries after “also recorded” stand apart in the source; their conditions may differ.

B1: KIKKVKKKGRKGSKIKKVKKKGRKGGKMLKKRSPLTTGVYVKMAATEAECEKQFQPYFIPIN (peptide)
chain: KIKKVKKKGRKGSKIKKVKKKGRKGGKMLKKRSPLTTGVYVKMAATEAECEKQFQPYFIPIN
notes: dNP2-ctCTLA-4 variant

Experiments:
[1] = system: multiple sclerosis animal model; experiment: Analysis of efficiency in multiple sclerosis (MS) animal model (MOG35-55/CFA + PTX); format: in vivo, C57BL/6 mice; conditions: for clinical symptoms (clinical score): 100 μg (5 mg/kg) intraperitoneally once a day from day 7 after PTX; for clinical symptoms (clinical score) / number of infiltrated lymphocytes in the spinal cord / number of Treg cells (spinal cord): comparator as named in the value
Method: 8-week-old female C57BL/6 mice were purchased from Orient Bio (Daejeon, Korea). All animal experiments were conducted in compliance with the animal experiment operation regulations of the Institutional Animal Care and Use Committee of Hanyang University. The mice were acclimatized for 2 weeks before the experiment. The mice were raised in a breeding room maintained at temperature 22±2° C. and 40-60% humidity with free access to feed. The light and dark cycles were adjusted at 12-hour intervals. Multiple sclerosis was induced by subcutaneous immunization using a MOG35-55/CFA emulsion PTX kit (Hooke Labs, Lawrence, MA, USA) according to the manufacturer's protocol. The mice were anesthetized with isoflurane and MOG35-55/CFA was subcutaneously injected bilaterally, followed by intraperitoneal injection of PTX (pertussis toxin) 2 hours and 24 hours later. The mice were randomly assigned to different groups after MOG immunization. Because paralysis due to immune response begins on day 7 after the injection of PTX, 100 μg (5 mg/kg) of the samples according to the present disclosure were intraperitoneally injected to the groups once a day from day 7. Each group was monitored every day after inducing multiple sclerosis and clinical symptoms were recorded. The clinical symptoms were evaluated based on the scoring system described in Table 2. The higher clinical scores indicate severer symptoms. The mice were euthanized at the end of the experiments and lymphocytes were isolated from the spinal cords. The isolated spinal cords were treated at 37° C. with 1 mg/mL of DNase 1 (10104159001; Sigma-Aldrich) and 1 mg/mL of collagenase D (11088866001; Sigma-Aldrich) and incubated at 80 rpm on a shaker for 40 minutes. After the enzyme treatment, 500 mM EDTA was added and lymphocytes were isolated by Percoll (GE Healthcare, Little Chalfont, UK) density-gradient centrifugation. The isolated infiltrated lymphocytes were restimulated with a cell stimulation cocktail (plus protein transport inhibitors) (ThermoFisher) at 37° C. for 4 hours and stained with anti-mouse CD4. The cells were fixed, permeabilized using a Foxp3/transcription factor staining buffer set (eBioscience) and stained with anti-mouse IFN-γ, anti-mouse IL-17 or anti-mouse Foxp3. The cells were analyzed using a FACS Canto flow cytometer and the FlowJo software version 10.7.1. For histological analysis, paraffin blocks of the spinal cord tissues were deparaffinized and treated with luxol fast blue. For combination staining, hematoxylin and eosin were used (Dako). The cells infiltrated in the white matter region of the spinal cord tissues were counted using the Image J software version 2.0.0. The increased number of Th1 and Th17 immune cells in the spinal cord means more severe multiple sclerosis, and the increased number of Treg cells means that the function of preventing or treating autoimmune disease such as multiple sclerosis is improved as the tolerance to self-antigens is maintained and the excessive response by the immune system is prevented.

[2] = system: Th17 cells differentiated from splenocytes isolated from mouse; experiment: Analysis of effect under Th17 differentiation conditions (flow cytometry of IL-17A and Foxp3); format: cell-based; conditions: sample 2 μM; for effect of suppressing immune response (decrease of IL-17 and increase of Foxp3): flow cytometry 4 days later, comparator as named in the value (Th17/PBS control, K1, AP-K2); for effect of suppressing immune response compared to the dNP2-ctCTLA-4 group: versus dNP2-ctCTLA-4 positive control
Text: Th17 cells are a subset of CD4 T cells. The Th17 cells are known to secrete a cytokine known as IL-17 and cause inflammation. This is the major cause of autoimmune disease. And, Treg cells (regulatory T cells) are known to suppress and regulate inflammation by expressing the transcription factor called Foxp3. Accordingly, since it is thought that the effect of preventing and treating autoimmune disease may be achieved by regulating inflammation by inhibiting Th17 cells (IL-17) and increasing Treg (Foxp3) cells, the effect of the peptides of the present disclosure was investigated.
Undifferentiated CD4 T cells (naive CD4 T cells) were isolated from splenocytes of 6- to 8-week-old C57BL/6 mice using a mouse undifferentiated CD4+ T cell (naive CD4 T cell) isolation kit (Miltenyi Biotec, Auburn, CA, USA) according to the manufacturer's protocols. For RNAseq, the undifferentiated CD4 T cells (naive CD4 T cells) from the Foxp3-GFP mice were purified, differentiated into Th17 cells and sorted into Foxp3^+ and Foxp3^− populations using a cell sorter (FACS Aria cell sorter BD Biosciences, Franklin Lakes, NJ, USA). The purified undifferentiated CD4 T cells (naive CD4 T cells) were activated with plate-bound anti-CD3 (2 or 5 μg/mL, 553057; BD Pharmingen, La Jolla, CA) and anti-CD28 (2 or 5 μg/mL, 553294; BD Pharmingen, La Jolla, CA) antibodies and differentiated by treating with the following cytokine cocktails in a 96-well plate for 3 or 4 days: Th0; recombinant human TGF-β(R&D Systems) 0.25 ng/mL. Th1; anti-IL-4 (11B11; 16-7041-85; eBioscience) 5 μg/mL, IL-2 (212-12; Peprotech, Rocky Hill, NJ) 50 U/mL, recombinant murine IL-12 (212-12; Peprotech) 2 ng/mL, recombinant human TGF-β (R&D Systems) for Th1 0.25 ng/mL. Th17; anti-IFN-γ (XMG1.2; 16-7311-85; eBioscience) 5 μg/mL, anti-IL-4 (11B11; 16-7041-85; eBioscience) 5 μg/mL, recombinant murine TGF-β (7666-MB, R&D Systems, Minneapolis, MN) 2 ng/mL, IL-6 (216-16; Peprotech) 30 ng/mL, IL-23 (1887-ML-101; R&D Systems) 20 ng/mL, IL-1β (401-ML-010; R&D Systems) 20 ng/mL, and IL-2 (Peprotech) 50 U/mL. Treg; IL-2 (Peprotech) 50 U/mL and TGF-β (R&D Systems) 0.5 ng/mL.
The cells were cotreated with the cytokine cocktails and the samples (2 μM). 4 days later, they were analyzed by flow cytometry using IL-17 and Foxp3 fluorescent antibodies. In some experiments, 5 μM PKC-η pseudosubstrate inhibitor (sc-3096; Santa Cruz) or 5 μM ERK inhibitor (UO126, 662005; Sigma) were also added.
For flow cytometric analysis of living cells only, dead cells were excluded using the Zombie Aqua™ fixable viability kit (Biolegend) before staining with antibodies at room temperature for 10 minutes. After washing, surface proteins of the differentiated Th1, Th17 and Treg cells were stained with monoclonal antibodies at 4° C. for 15 minutes. To determine intracellular cytokine levels, the cells were restimulated with a cell stimulation cocktail (plus protein transport inhibitors) (ThermoFisher) at 37° C. for 4 hours and then stained with surface marker antibodies. The cells were then fixed, permeabilized using a Foxp3/transcription factor staining buffer set (eBioscience) and stained with anti-mouse IFN-γ, anti-mouse IL-17 and anti-mouse Foxp3. The cells were analyzed using a FACS Canto II flow cytometer and the FlowJo software version 10.7.

[3] = 100 μg intraperitoneally once a day from day 7

Row | Molecule | clinical symptoms (clinical score) [1] | number of infiltrated lymphocytes in the spinal cord [1, 3] | effect of suppressing immune response (decrease of IL-17 and increase of Foxp3) [2] | number of Treg cells (spinal cord) [1, 3] | other results
1 | KIKKVKKKGRKGSKIKKVKKKGRKGGKMLKKRSPLTTGVYVKM (dNP2-KSY) [deleted variant of dNP2-ctCTLA-4] | significantly superior in terms of clinical symptoms as compared to the TAT-ctCTLA-4 group and the PBS group | significantly smaller number of infiltrated lymphocytes in the spinal cord as compared to the TAT-ctCTLA-4 group and the PBS group |  |  | 
2 | KIKKVKKKGRKGSKIKKVKKKGRKKMLKKRS (dNP2-K1) [deleted variant of dNP2-ctCTLA-4 with only the K motif] |  | significantly smaller number of infiltrated lymphocytes in the spinal cord as compared to the TAT-ctCTLA-4 group and the PBS group | exhibited the activity of inhibiting immune response |  | 
3 | KMLKKRS (K1) [Example K1, single K motif of CTLA4 without CPP, fatty acid or linker] |  |  | did not show significant difference from Th17 (control group) |  | effect in the multiple sclerosis animal model (overall) ([1]; 100 μg intraperitoneally once a day from day 7 to day 18): does not show significant effect on its own in the multiple sclerosis animal model
4 | KMLKKRSGGGGSKMLKKRS (K2(G4S)) [K2 (G4S)] | significantly remarkable superior result in clinical symptoms than the K1 group | significantly number of infiltrated lymphocytes in the spinal cord as compared to the K1 group | the activity of inhibiting immune cells is significantly superior | larger number of Treg cells than the K1 group | 
5 | KMLKKRSKMLKKRS (K2) [Example K2, two K motifs of CTLA4 linked, no linker] | significantly improved result for clinical symptoms as compared to the PBS group | significantly smaller number of infiltrated lymphocytes in the spinal cord than the PBS (control group) | significantly better effect of suppressing immune response than the PBS (control group); also recorded: significantly superior effect of suppressing immune response as compared to the PBS group |  | effect of suppressing immune response compared to the dNP2-ctCTLA-4 group ([2]; 4 days): comparable effect
6 | KMLKKRSKMLKKRSKMLKKRS (K3) [Example K3] | significantly remarkable superior result in clinical symptoms than the K1 group | significantly number of infiltrated lymphocytes in the spinal cord as compared to the K1 group | significantly better effect of suppressing immune response than the PBS (control group); also recorded: significantly superior effect of suppressing immune response as compared to the PBS group | larger number of Treg cells than the K1 group | effect of suppressing immune response compared to the dNP2-ctCTLA-4 group ([2]; 4 days): comparable effect; effect of suppressing immune response (decrease of IL-17 and increase of Foxp3) ([2]; listed as Example 4): the activity of inhibiting immune cells is significantly superior
7 | RRRWCKRRRGGKMLKKRSKMLKKRS (AP-K2) | significantly improved results for clinical symptoms as compared to the PBS (control group); also recorded: significantly improved result for clinical symptoms as compared to the PBS group | significantly smaller number of infiltrated lymphocytes in the spinal cord as compared to the PBS (control group), dNP2 and AP groups; also recorded: significantly smaller number of infiltrated lymphocytes in the spinal cord than the PBS (control group) | significantly better effect of suppressing immune response than the PBS (control group) | significantly number of regulatory T cells (Treg) as compared to the PBS (control group) | effect of inhibiting the IL-17 cytokine compared to the dNP2-ctCTLA-4 group ([2]; 4 days): remarkably superior effect of inhibiting the IL-17 cytokine as compared to the dNP2-ctCTLA-4 group; reduction of IL-17 as compared to the control group ([2]; 4 days, CD4+IL-17A+ T cells): reduced IL-17 to half or less; increase of Foxp3 as compared to the control group ([2]; 4 days, CD4+foxp3+ T cells): ≥ 5 times; number of regulatory T cells (Treg) compared to dNP2-ctCTLA-4 [1, 3]: an increase comparable to that of dNP2-ctCTLA-4; number of infiltrated lymphocytes in the spinal cord, ranking among the groups ([1]; 100 μg intraperitoneally once a day from day 7 to day 13, groups K2, AP-K2, Myr-K2, Myr-K3): most superior effects; expression of IL-17 T cells, IFN-γ T cells and Foxp3 T cells compared to PBS ([1]; 100 μg intraperitoneally once a day from day 7 to day 13, spinal cord lymphocytes): inhibited expression of II-17 T cells and IFN-γ T cells and increase of Foxp3 T cells as compared to the PBS (control group)
8 | B1 | significantly lower clinical symptoms as compared to the PBS group | significantly larger number of infiltrated lymphocytes in the spinal cord as compared to the PBS group |  |  | 
